Assay in all cases: microbe, parasite or virus in culture
What all share (type): cell-based, SARS-COV-2

One test relates to rSARS-COV-2-mCherry. Particulars: Severe acute respiratory syndrome coronavirus 2, Vero C1008.
Another test relates to rSARS-COV-2-Venus. As to conditions: Severe acute respiratory syndrome coronavirus 2, Vero C1008.
A further test relates to rSARS-COV-2-Nluc. Particulars: Severe acute respiratory syndrome coronavirus 2, Vero C1008, 48 h.
Another test has as its system rSARS-COV-2/WT. Particulars: Severe acute respiratory syndrome coronavirus 2, Vero C1008.

What is called EC50 is the concentration needed to bring the measured effect to its halfway point. Higher therefore signals weaker potency.

For the compound `CCC(CC)COC(=O)[C@H](C)N[P@](=O)(OC[C@H]1O[C@@](C#N)(c2ccc3c(N)ncnn23)[C@H](O)[C@@H]1O)Oc1ccccc1` [Remdesivir], the 50% effective concentration (EC50) in the test on rSARS-COV-2-mCherry turned out to be 1780 nM; with rSARS-COV-2-Venus, 1070 nM; in the test on rSARS-COV-2-Nluc it was 1790 nM; in the test with rSARS-COV-2/WT, 1510 nM.

Values taken from US20240307525A1 (priority 2020, published 2024).
